This passage reports MIC results from DBAASP.

Molecules are shown by their SMILES. In brackets after ≈: the same amount, converted by molar mass. Several values for one entry are separate records, joined by “and”; a condition that tells them apart may be missing. Equal values may be shown once. A value given as a limit tells only on which side of the number the result lay.

Some test systems named below: Cutibacterium acnes; Acinetobacter baumannii; Fusobacterium nucleatum; Clostridium septicum; Bacteroides fragilis; Micrococcus luteus; Pseudomonas aeruginosa; Candida albicans; Enterococcus faecium; Citrobacter freundii; Klebsiella pneumoniae; Staphylococcus aureus; Bacillus megaterium Bm11; Escherichia coli ML-35; Escherichia coli; Staphylococcus simulans.
Holding throughout (assay): ≥ marks a high value that may be exact or a test limit, other limits are often not marked, values filed in µg/mL are converted to µM
In assay [1] the test system is Fusobacterium varium ATCC 27725.
For assay [2], the system named is Pseudomonas aeruginosa CGMCC 1.2421.
For assay [3], the system named is Escherichia coli CGMCC 1.8732.
The test system of assay [4] is Staphylococcus aureus T58/7.
For assay [5], the system named is Staphylococcus aureus T27/9.
Assay [6] concerns Peptoniphilus asaccharolyticus ATCC 29743.
Assay [7] relates to Pseudomonas aeruginosa ATCC 27853.
In assay [8] the test system is Bacillus subtilis CGMCC 1.3376.
The subject of assay [9] is Staphylococcus epidermidis RP62A.
Assay [10] deals with Escherichia coli ATCC 25922.
Assay [11] relates to Staphylococcus aureus T7/5.
Assay [12] deals with Proteus mirabilis ATCC 25933.
For assay [13], the system named is Salmonella enterica subsp. enterica serovar Typhimurium LT2.
Assay [14] has as its system Staphylococcus aureus CGMCC 1.8721.
Assay [15] has as its system Klebsiella pneumoniae KK3 9904.
The test system of assay [16] is Clostridium tertium ATCC 19465.
In assay [17] the test system is Staphylococcus aureus NCTC 8325.
In assay [18] the test system is Batrachochytrium dendrobatidis.
For assay [19], the system named is Enterococcus faecalis ATCC 29212.
For assay [20], the system named is Enterobacter cloacae HNTCC 53001.
The test system of assay [21] is Klebsiella pneumoniae CGMCC 1.1736.
The subject of assay [22] is Prevotella melaninogenica.
The test system of assay [23] is Clostridium perfringens ATCC 10543.
Assay [24] deals with Staphylococcus epidermidis CGMCC 1.4260.
The subject of assay [25] is Peptostreptococcus anaerobius.
The test system of assay [26] is Candida albicans ATCC 90028.
For assay [27], the system named is Cutibacterium acnes ATCC 11828.
Assay [28] has as its system Bacteroides fragilis ATCC 25285.
For assay [29], the system named is Candida albicans CIB 45437.
Assay [30] concerns Escherichia coli ATCC 25726.
Assay [31] has as its system Staphylococcus aureus CIB 85462.
Assay [32] concerns Escherichia coli CIB 84492.
The test system of assay [33] is Staphylococcus aureus ATCC 25923.
Assay [34] relates to Staphylococcus aureus LT1338.
In assay [35] the test system is Staphylococcus aureus 710A.
In assay [36] the test system is Salmonella enterica subsp. enterica serovar Typhimurium ATCC 14028.
The test system of assay [37] is Staphylococcus haemolyticus.
Assay [38] deals with Staphylococcus aureus LT1334.
Assay [39] deals with Stenotrophomonas maltophilia.
In assay [40] the test system is Staphylococcus epidermidis LT1324.

As for `CC[C@H](C)[C@H](NC(=O)[C@H](C)N)C(=O)NCC(=O)N[C@@H](CO)C(=O)N[C@H](C(=O)N[C@@H](CC(C)C)C(=O)NCC(=O)N[C@@H](C)C(=O)N[C@@H](CC(C)C)C(=O)N[C@@H](C)C(=O)N[C@@H](CCCCN)C(=O)NCC(=O)N[C@@H](CC(C)C)C(=O)N1CCC[C@H]1C(=O)N[C@H](C(=O)N[C@@H](CC(C)C)C(=O)N[C@H](C(=O)N[C@@H](CO)C(=O)N[C@@H](Cc1c[nH]c2ccccc12)C(=O)N[C@H](C(=O)N[C@@H](CCCCN)C(=O)N[C@@H](CC(N)=O)C(=O)N[C@@H](CCCN=C(N)N)C(N)=O)[C@@H](C)CC)[C@@H](C)CC)[C@@H](C)O)[C@@H](C)CC` [AIGSILGALAKGLPTLISWIKNR], the MIC in assay [1] is at least 50 µM; in assay [2], 12.5 µM (≈ 29.9 µg/mL); in [3] it was 25 µM (≈ 59.8 µg/mL); in assay [4], 20 µM (≈ 47.8 µg/mL); in [5], 5 µM (≈ 12 µg/mL); in [6], at least 50 µM. Also, the MIC in [7] was 25 µM (≈ 59.8 µg/mL); in assay [8], 3.13 µM (≈ 7.49 µg/mL); in [9], 3 µM (≈ 7.18 µg/mL); in [10], 20 µM and 12.5 µM; in [11], 2.5 µM (≈ 5.98 µg/mL); in assay [12] it was at least 100 µM. The MIC in assay [13] was at least 50 µM; in assay [14], 6.25 µM (≈ 14.9 µg/mL); in assay [15], at least 50 µM; in [16], 12.5 µM (≈ 29.9 µg/mL); in the assay with Cutibacterium acnes, 25 µM (≈ 59.8 µg/mL); in assay [17], 3.5 µM and 6 µM. For the same compound, the MIC in assay [18] is 25 µM (≈ 59.8 µg/mL); in assay [19], 6 µM (≈ 14.4 µg/mL); against Acinetobacter baumannii, 12.5 µM (≈ 29.9 µg/mL); in assay [20], 12.5 µM (≈ 29.9 µg/mL); in assay [21], 12.5 µM (≈ 29.9 µg/mL); in assay [22], 3 µM (≈ 7.18 µg/mL). Moreover, the MIC against Fusobacterium nucleatum is at least 50 µM; in [23] it was at least 50 µM; in assay [24] it was 3.13 µM (≈ 7.49 µg/mL); in assay [25], 25 µM (≈ 59.8 µg/mL); in assay [26], 19 µM and 12.5 µM; with Clostridium septicum it was 12.5 µM (≈ 29.9 µg/mL). Moreover, the MIC in the assay on Bacteroides fragilis was at least 50 µM; in assay [27], 12.5 µM (≈ 29.9 µg/mL); in assay [28] it was at least 50 µM.

For `CC[C@H](C)[C@@H]1NC(=O)[C@H](C)NC(=O)[C@@H](NC(=O)[C@H](Cc2ccccc2)NC(=O)[C@@H](NC(=O)[C@@H](NC(=O)[C@@H]2CCCN2C(=O)[C@@H](NC(=O)[C@@H](NC(=O)[C@H](CCC(N)=O)NC(=O)[C@H](C)NC(=O)[C@H](C)NC(=O)[C@@H](NC(=O)[C@H](CCCN=C(N)N)NC(=O)[C@H](CC(C)C)NC(=O)[C@@H](NC(=O)[C@H](C)NC(=O)[C@@H]2CCCN2C(=O)[C@H](CC(C)C)NC(=O)[C@@H](N)Cc2ccccc2)C(C)C)C(C)C)C(C)C)C(C)C)[C@@H](C)O)C(C)C)CSSC[C@@H](C(=O)O)NC(=O)[C@H](CCCCN)NC(=O)[C@H](CCCCN)NC(=O)[C@H](CO)NC1=O` [FLPAVLRVAAQVVPTVFCAISKKC], the MIC was at least 50 µM in assay [29]; 50 µM (≈ 128 µg/mL) in [10]; at least 48.8 µM in assay [30]; 12.5 µM (≈ 32 µg/mL) in assay [31]; 25 µM (≈ 64 µg/mL) in assay [32]; 3.12 µM (≈ 7.99 µg/mL) in [33].

For the compound `CC[C@H](C)[C@H](NC(=O)[C@H](CCCN=C(N)N)NC(=O)[C@H](C)NC(=O)[C@H](CC(C)C)NC(=O)[C@H](CCCN=C(N)N)NC(=O)CNC(=O)[C@H](Cc1ccccc1)NC(=O)[C@@H](NC(=O)[C@H](CO)NC(=O)CNC(=O)[C@H](CC(C)C)NC(=O)CN)C(C)C)C(=O)N[C@@H](CC(C)C)C(=O)NCC(=O)N[C@@H](CCCN=C(N)N)C(=O)N[C@H](C(=O)N[C@H](C(=O)N1CCC[C@H]1C(=O)N[C@@H](CCCCN)C(=O)N[C@H](C(N)=O)C(C)C)[C@@H](C)CC)C(C)C` [GLGSVFGRLARILGRVIPKV], the MIC in assay [34] is 3 µM (≈ 6.32 µg/mL); against Micrococcus luteus it was 0.5 µM (≈ 1.05 µg/mL); with Pseudomonas aeruginosa, 4 µM (≈ 8.43 µg/mL); in assay [7] it was 8 µM (≈ 16.9 µg/mL); in the assay with Candida albicans it was over 4 µM; in assay [35] it was 4 µM (≈ 8.43 µg/mL). Further, the MIC against Enterococcus faecium stood at 2 µM (≈ 4.22 µg/mL); in the assay with Citrobacter freundii it was 2 µM (≈ 4.22 µg/mL); in [36] it was 8 µM (≈ 16.9 µg/mL); with Klebsiella pneumoniae it was 2 µM (≈ 4.22 µg/mL); in [37] it was 2 µM (≈ 4.22 µg/mL); in the assay with Staphylococcus aureus, 2 µM (≈ 4.22 µg/mL). Moreover, the MIC was determined as 2 µM (≈ 4.22 µg/mL) with Bacillus megaterium Bm11; 2 µM (≈ 4.22 µg/mL) against Escherichia coli ML-35; 1.5 µM (≈ 3.16 µg/mL) in assay [38]; 2 µM (≈ 4.22 µg/mL) in [39]; 2.83 µM (≈ 5.96 µg/mL) against Escherichia coli; 2 µM (≈ 4.22 µg/mL) in the assay with Staphylococcus simulans. In assay [40], this compound registered an MIC of 2 µM (≈ 4.22 µg/mL).
